Test results: patent US20250154686A1, “COMPOUND LIBRARY” (CHUGAI SEIYAKU KABUSHIKI KAISHA, priority 2021, published 2025)

Target: T1, Bcl-2 protein (Recombinant Human Bcl-2 Protein) (Homo sapiens, UniProt P10415)
T1 construct: purchased Novus Biologicals NBP2-34889
Test: AS-MS evaluation of binding of the Example 4 mixture library (1200 compounds/well) to Bcl-2, ASMS ratio (%)
Conditions: AS-MS, Example 4 mixture library; for ASMS ratio (%) n = 1: Bcl-2, replicate n = 1; for ASMS ratio (%) n = 2: Bcl-2, replicate n = 2
In short: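 Binding is read as an ASMS ratio from reverse-phase LC/MS peak data. Samples: 1200 compounds at 20 nM each with 20 μM Bcl-2, 1 h at 23 °C in the dark, then P-2 SEC and organic-solvent extraction; references lacked protein, with and without SEC.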

T1 sequence (P10415 whole entry): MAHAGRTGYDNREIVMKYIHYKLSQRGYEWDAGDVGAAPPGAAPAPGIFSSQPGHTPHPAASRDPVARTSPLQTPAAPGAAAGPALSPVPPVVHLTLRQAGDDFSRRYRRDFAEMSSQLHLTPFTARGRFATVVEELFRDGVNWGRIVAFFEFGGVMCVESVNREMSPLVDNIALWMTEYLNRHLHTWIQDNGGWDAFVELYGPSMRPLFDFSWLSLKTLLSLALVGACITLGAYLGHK

SMILES | ASMS ratio (%) n = 1 | ASMS ratio (%) n = 2
CCOc1cncc(-c2cc(CN3CCN(c4ccc(C(=O)NS(=O)(=O)c5ccc(NCCSc6ccccc6)c(C(F)(F)F)c5)cc4)CC3)cc(OC(F)(F)F)c2)c1 [Compound B2R064-01, 4-[4-[[3-(5-Ethoxypyridin-3-yl)-5-(trifluoromethoxy)phenyl]methyl]piperazin-1-yl]-N-[4-(2-phenylsulfanylethylamino)-3-(trifluoromethyl)phenyl]sulfonylbenzamide] | 4.2% | −7.4%
CCOc1cccc(-c2ccc(CN3CCN(c4ccc(C(=O)NS(=O)(=O)c5ccc(NCCSc6ccccc6)c(C(F)(F)F)c5)cc4)CC3)c3ccccc23)c1 [Compound B2R065-01, 4-[4-[[4-(3-Ethoxyphenyl)naphthalen-1-yl]methyl]piperazin-1-yl]-N-[4-(2-phenylsulfanylethylamino)-3-(trifluoromethyl)phenyl]sulfonylbenzamide] | 3.8% | 0.3%
CCOc1cncc(-c2ccc(CN3CCN(c4ccc(C(=O)NS(=O)(=O)c5ccc(NCCSc6ccccc6)c(C(F)(F)F)c5)cc4)CC3)c3ccccc23)c1 [Compound B2R066-01, 4-[4-[[4-(5-Ethoxypyridin-3-yl)naphthalen-1-yl]methyl]piperazin-1-yl]-N-[4-(2-phenylsulfanylethylamino)-3-(trifluoromethyl)phenyl]sulfonylbenzamide] | 19.8% | −10.7%
CCOc1cccc(-c2csc(CN3CCN(c4ccc(C(=O)NS(=O)(=O)c5ccc(NCCSc6ccccc6)c(C(F)(F)F)c5)cc4)CC3)c2)c1 [Compound B2R067-01, 4-[4-[[4-(3-Ethoxyphenyl)thiophen-2-yl]methyl]piperazin-1-yl]-N-[4-(2-phenylsulfanylethylamino)-3-(trifluoromethyl)phenyl]sulfonylbenzamide] | 8.0% | 0.0%
CCOc1cncc(-c2csc(CN3CCN(c4ccc(C(=O)NS(=O)(=O)c5ccc(NCCSc6ccccc6)c(C(F)(F)F)c5)cc4)CC3)c2)c1 [Compound B2R068-01, 4-[4-[[4-(5-Ethoxypyridin-3-yl)thiophen-2-yl]methyl]piperazin-1-yl]-N-[4-(2-phenylsulfanylethylamino)-3-(trifluoromethyl)phenyl]sulfonylbenzamide] | 0.0% | 0.0%
CCOc1cccc(C#Cc2ccccc2CN2CCN(c3ccc(C(=O)NS(=O)(=O)c4ccc(NCCSc5ccccc5)c(C(F)(F)F)c4)cc3)CC2)c1 [Compound B2R069-01, 4-[4-[[2-[2-(3-Ethoxyphenyl)ethynyl]phenyl]methyl]piperazin-1-yl]-N-[4-(2-phenylsulfanylethylamino)-3-(trifluoromethyl)phenyl]sulfonylbenzamide] | 12.3% | −18.5%
CCOc1cccc(-c2ccccc2CN2CCN(c3ccc(C(=O)NS(=O)(=O)c4ccc(NCCSc5ccccc5)c(C(F)(F)F)c4)nn3)CC2)c1 [Compound B2R071-01] | 14.3% | −9.0%
CCOc1cncc(-c2ccccc2CN2CCN(c3ccc(C(=O)NS(=O)(=O)c4ccc(NCCSc5ccccc5)c(C(F)(F)F)c4)nn3)CC2)c1 [Compound B2R072-01] | 21.4% | 11.4%
CCOc1cccc(-c2ccc(CN3CCN(c4ccc(C(=O)NS(=O)(=O)c5ccc(NCCSc6ccccc6)c(C(F)(F)F)c5)nn4)CC3)cc2C)c1 [Compound B2R073-01, 6-[4-[[4-(3-Ethoxyphenyl)-3-methylphenyl]methyl]piperazin-1-yl]-N-[4-(2-phenylsulfanylethylamino)-3-(trifluoromethyl)phenyl]sulfonylpyridazine-3-carboxamide] | 24.0% | 0.0%
CCOc1cncc(-c2ccc(CN3CCN(c4ccc(C(=O)NS(=O)(=O)c5ccc(NCCSc6ccccc6)c(C(F)(F)F)c5)nn4)CC3)cc2C)c1 [Compound B2R074-01, 6-[4-[[4-(5-ethoxypyridin-3-yl)-3-methylphenyl]methyl]piperazin-1-yl]-N-[4-(2-phenylsulfanylethylamino)-3-(trifluoromethyl)phenyl]sulfonylpyridazine-3-carboxamide] | 22.4% | 25. %
CCOc1cccc(-c2ccc(CN3CCN(c4ccc(C(=O)NS(=O)(=O)c5ccc(NCCSc6ccccc6)c(C(F)(F)F)c5)nn4)CC3)c(CC)c2)c1 [Compound B2R075-01, 6-[4-[[4-(3-Ethoxyphenyl)-2-ethylphenyl]methyl]piperazin-1-yl]-N-[4-(2-phenylsulfanylethylamino)-3-(trifluoromethyl)phenyl]sulfonylpyridazine-3-carboxamide] | 8.6% | 0.0%
CCOc1cncc(-c2ccc(CN3CCN(c4ccc(C(=O)NS(=O)(=O)c5ccc(NCCSc6ccccc6)c(C(F)(F)F)c5)nn4)CC3)c(CC)c2)c1 [Compound B2R076-01] | 3.9% | 19.7%
CCOc1cccc(-c2ccc(CN3CCN(c4ccc(C(=O)NS(=O)(=O)c5ccc(NCCSc6ccccc6)c(C(F)(F)F)c5)nn4)CC3)cc2F)c1 [Compound B2R077-01, 6-[4-[[4-(3-Ethoxyphenyl)-3-fluorophenyl]methyl]piperazin-1-yl]-N-[4-(2-phenylsulfanylethylamino)-3-(trifluoromethyl)phenyl]sulfonylpyridazine-3-carboxamide] | 0.0% | 0.0%
CCOc1cncc(-c2ccc(CN3CCN(c4ccc(C(=O)NS(=O)(=O)c5ccc(NCCSc6ccccc6)c(C(F)(F)F)c5)nn4)CC3)cc2F)c1 [Compound B2R078-01, 6-[4-[[4-(5-Ethoxypyridin-3-yl)-3-fluorophenyl]methyl]piperazin-1-yl]-N-[4-(2-phenylsulfanylethylamino)-3-(trifluoromethyl)phenyl]sulfonylpyridazine-3-carboxamide] | 15.8% | 11.7%
CCOc1cncc(-c2ccc(CN3CCN(c4ccc(C(=O)NS(=O)(=O)c5ccc(NCCSc6ccccc6)c(C(F)(F)F)c5)nn4)CC3)c(OC)c2)c1 [Compound B2R080-01, 6-[4-[[4-(5-Ethoxypyridin-3-yl)-2-methoxyphenyl]methyl]piperazin-1-yl]-N-[4-(2-phenylsulfanylethylamino)-3-(trifluoromethyl)phenyl]sulfonylpyridazine-3-carboxamide] | 16.7% | 21.2%
CCOc1cccc(-c2cc(CN3CCN(c4ccc(C(=O)NS(=O)(=O)c5ccc(NCCSc6ccccc6)c(C(F)(F)F)c5)nn4)CC3)cc(OCC)c2)c1 [Compound B2R081-01] | 21.1% | −8.8%
CCOc1cncc(-c2cc(CN3CCN(c4ccc(C(=O)NS(=O)(=O)c5ccc(NCCSc6ccccc6)c(C(F)(F)F)c5)nn4)CC3)cc(OCC)c2)c1 [Compound B2R082-01] | 0.0% | 0.0%
CCOc1cccc(-c2cc(CN3CCN(c4ccc(C(=O)NS(=O)(=O)c5ccc(NCCSc6ccccc6)c(C(F)(F)F)c5)nn4)CC3)cc(OC(C)C)c2)c1 [Compound B2R083-01, 6-[4-[[3-(3-Ethoxyphenyl)-5-propan-2-yloxyphenyl]methyl]piperazin-1-yl]-N-[4-(2-phenylsulfanylethylamino)-3-(trifluoromethyl)phenyl]sulfonylpyridazine-3-carboxamide] | 31.9% | −11.1%
CCOc1cncc(-c2cc(OC)c(CN3CCN(c4ccc(C(=O)NS(=O)(=O)c5ccc(NCCSc6ccccc6)c(C(F)(F)F)c5)nn4)CC3)c(OC)c2)c1 [Compound B2R086-01, 6-[4-[[4-(5-Ethoxypyridin-3-yl)-2,6-dimethoxyphenyl]methyl]piperazin-1-yl]-N-[4-(2-phenylsulfanylethylamino)-3-(trifluoromethyl)phenyl]sulfonylpyridazine-3-carboxamide] | 0.0% | 0.0%
CCOc1cccc(-c2cc(CN3CCN(c4ccc(C(=O)NS(=O)(=O)c5ccc(NCCSc6ccccc6)c(C(F)(F)F)c5)nn4)CC3)cc(C(F)(F)F)c2)c1 [Compound B2R087-01] | 3.8% | 7.1%
CCOc1cncc(-c2cc(CN3CCN(c4ccc(C(=O)NS(=O)(=O)c5ccc(NCCSc6ccccc6)c(C(F)(F)F)c5)nn4)CC3)cc(C(F)(F)F)c2)c1 [Compound B2R088-01, 6-[4-[[3-(5-Ethoxypyridin-3-yl)-5-(trifluoromethyl)phenyl]methyl]piperazin-1-yl]-N-[4-(2-phenylsulfanylethylamino)-3-(trifluoromethyl)phenyl]sulfonylpyridazine-3-carboxamide] | 35.3% | 13.1%
CCOc1cccc(-c2cc(CN3CCN(c4ccc(C(=O)NS(=O)(=O)c5ccc(NCCSc6ccccc6)c(C(F)(F)F)c5)nn4)CC3)cc(OC(F)(F)F)c2)c1 [Compound B2R089-01, 6-[4-[[3-(3-Ethoxyphenyl)-5-(trifluoromethoxy)phenyl]methyl]piperazin-1-yl]-N-[4-(2-phenylsulfanylethylamino)-3-(trifluoromethyl)phenyl]sulfonylpyridazine-3-carboxamide] | 3.4% | −9.2%
